Columns and labels:
[1] = target: T1, HIV integrase wild type (Human immunodeficiency virus type 1 group M subtype B, UniProt P04585); test: Strand transfer assay (enzyme assay), WT; type: biochemical, HIV-1
T1 construct: The integrase coding region was then subject to PCR and cloned into a bacterial expression vector; made in house
From the text: (§1) HIV integrase was mutated within a shuttle vector (pGEM) containing the majority of the HIV-1 gag and pol sequence using site directed mutagenesis to generate integrase sequences that have been published as conferring resistance to published integrase inhibitors. These include, but are not limited to, mutations such as Q148K. The integrase coding region was then subject to PCR and cloned into a bacterial expression vector. The specific introduction of desired mutation(s) was confirmed by sequence analysis. Proteins were expressed, purified and used in strand transfer assays.
(§2) A strand transfer assay procedure similar to that published (Ovenden et al. Phytochemistry. 2004 December; 65(24):3255-9.) is used. Briefly, 400 ng of the enzyme, wild type or drug resistant mutant, is mixed with the compound to be tested and incubated with 30 nM substrate DNA. The substrate DNA is designed to mimic HIV DNA termini that has undergone 3′end processing, and consists of the annealed U5 LTR sequence oligonucleotides tagged with Digoxigenin (DIG; 5′-[…]-DIG-3′) or biotin (5′-Bio-[…]-3′) so that each substrate has either a DIG or Bio tag on opposite strands. Reactions are carried out for 1 hr at 37° C. Products generated as a result of strand transfer activity are bound to streptavidin plates and detected using anti-DIG-alkaline phosphatase conjugate and p-nitro phenyl phosphate substrate.

[2] = tested on: HIV variant Q148H/G140S double mutation in integrase; test: Phenosense (PhenoScreen) assay, G140S Q148H; type: cell-based
From the text: (§3) Monogram Bioscience' PhenoScreen assay allows the evaluation of integrase inhibitors for activity against a variety of HIV variants. The assay uses virus generated from 2 DNA constructs; one containing the HIV LTR, gag and pol regions, as well as a luciferase reporter gene in place of the viral envelope genes, and a second DNA construct containing the amphotrophic murine leukemia virus (A-MLV) envelope gene required to pseudotype virions and render them capable of entry into a target cell. Viruses generated using these constructs by transfection into a producer cell line such as 293T are capable of one-round of infection only. Successful integration events are directly proportional to the levels of luciferase expression 48 h after infection.
(§4) The viral variants chosen by Avexa Ltd to screen their in-house integration inhibitors against consist of mutations within the viral integrase enzyme known to confer resistance to a number of known integration inhibitors published in the literature. In particular, the viral variants containing the Q148H/G140S double mutation in integrase, and the N155H/E92Q double mutation in integrase, represent two of the more common viruses identified to arise in patients that are failing treatment with Isentress (Raltegravir, MK-0518).

[3] = tested on: HIV variant N155H/E92Q double mutation in integrase; test: Phenosense (PhenoScreen) assay, E92Q N155H; type: cell-based
From the text: as §3, §4

[4] = tested on: HIV variant Y143R in integrase; test: Phenosense (PhenoScreen) assay, Y143R; type: cell-based
From the text: as §3, §4

[5] = tested on: HIV variant T661 S153Y in integrase; test: Phenosense (PhenoScreen) assay, T661 S153Y; type: cell-based
From the text: as §3, §4

[6] = tested on: HIV variant T125K F121Y in integrase; test: Phenosense (PhenoScreen) assay, T125K F121Y; type: cell-based
From the text: as §3, §4

[7] = tested on: HIV WT; test: Phenosense (PhenoScreen) assay, WT; type: cell-based; details: wild type HIV, luciferase 48 h after infection
From the text: as §3, §4

[8] = target: T2, HIV integrase G140S/Q148H (Human immunodeficiency virus type 1 group M subtype B, UniProt P04585, G1287S/Q1295H); test: Strand transfer assay (enzyme assay), G140S/Q148H; type: biochemical, HIV-1
T2 construct: The integrase coding region was then subject to PCR and cloned into a bacterial expression vector; made in house
From the text: as §1, §2

[9] = target: T3, HIV integrase E92Q/N155H (Human immunodeficiency virus type 1 group M subtype B, UniProt P04585, E1239Q/N1302H); test: Strand transfer assay (enzyme assay), E92Q/N155H; type: biochemical, HIV-1
T3 construct: The integrase coding region was then subject to PCR and cloned into a bacterial expression vector; made in house
From the text: as §1, §2

## Cc1cn2c(=O)c(O)c(C(=O)NCc3ccc(Cl)c(Cl)c3)nc2s1
[1]
  Enzyme WT: +++ (+++ indicates value between 0.001 μM and 1 μM)

## CC(C)c1cn2c(=O)c(O)c(C(=O)NCc3ccc(Cl)c(Cl)c3)nc2s1
[2]
  Phenosense assay G140S Q148H: + (+indicates value greater than 10 μM)
[3]
  Phenosense assay E92Q N155H: + (+indicates value greater than 10 μM)
[4]
  Phenosense assay Y143R: +++ (+++ indicates value between 0.001 μM and 1 μM)
[5]
  Phenosense assay T661 S153Y: ++ (++ indicates value between 1 μM and 10 μM)
[1]
  Enzyme WT: +++ (+++ indicates value between 0.001 μM and 1 μM)
[6]
  Phenosense assay T125K F121Y: + (+indicates value greater than 10 μM)
[7]
  Phenosense assay WT: +++ (+++ indicates value between 0.001 μM and 1 μM)

## Cc1cn2c(=O)c(O)c(-c3ncc(Cc4ccc(F)c(Cl)c4)s3)nc2s1
[1]
  Enzyme WT: +++ (+++ indicates value between 0.001 μM and 1 μM)
[8]
  Enzyme G140S/Q148H: ++ (++ indicates value between 1 μM and 10 μM)
[9]
  Enzyme E92Q/N155H: ++ (++ indicates value between 1 μM and 10 μM)

## Cc1cn2c(=O)c(O)c(-c3ncc(Cc4ccc(Cl)cc4)s3)nc2s1
[1]
  Enzyme WT: +++ (+++ indicates value between 0.001 μM and 1 μM)
[8]
  Enzyme G140S/Q148H: + (+indicates value greater than 10 μM)
[9]
  Enzyme E92Q/N155H: ++ (++ indicates value between 1 μM and 10 μM)

## Cc1cn2c(=O)c(O)c(-c3ncc(Cc4ccc(Cl)c(Cl)c4)s3)nc2s1
[1]
  Enzyme WT: +++ (+++ indicates value between 0.001 μM and 1 μM)
[8]
  Enzyme G140S/Q148H: +++ (+++ indicates value between 0.001 μM and 1 μM)
[9]
  Enzyme E92Q/N155H: ++ (++ indicates value between 1 μM and 10 μM)

## Cc1cn2c(=O)c(O)c(C(=O)NCc3ccc(F)cc3)nc2s1
[1]
  Enzyme WT: ++ (++ indicates value between 1 μM and 10 μM)

## O=C(NCc1ccc(F)cc1)c1nc2sc(CN3CCOCC3)cn2c(=O)c1O
[2]
  Phenosense assay G140S Q148H: + (+indicates value greater than 10 μM)
[3]
  Phenosense assay E92Q N155H: + (+indicates value greater than 10 μM)
[4]
  Phenosense assay Y143R: ++ (++ indicates value between 1 μM and 10 μM)
[5]
  Phenosense assay T661 S153Y: + (+indicates value greater than 10 μM)
[1]
  Enzyme WT: ++ (++ indicates value between 1 μM and 10 μM)
[6]
  Phenosense assay T125K F121Y: + (+indicates value greater than 10 μM)
[7]
  Phenosense assay WT: ++ (++ indicates value between 1 μM and 10 μM)

## Cc1cn2c(=O)c(O)c(-c3ncc(Cc4ccc(F)cc4)s3)nc2s1
[9]
  Enzyme E92Q/N155H: +++ (+++ indicates value between 0.001 μM and 1 μM)

## O=C(NCc1ccc(Cl)c(Cl)c1)c1nc2sc(CN3CCOCC3)cn2c(=O)c1O
[2]
  Phenosense assay G140S Q148H: + (+indicates value greater than 10 μM)
[3]
  Phenosense assay E92Q N155H: + (+indicates value greater than 10 μM)
[4]
  Phenosense assay Y143R: +++ (+++ indicates value between 0.001 μM and 1 μM)
[5]
  Phenosense assay T661 S153Y: + (+indicates value greater than 10 μM)
[1]
  Enzyme WT: +++ (+++ indicates value between 0.001 μM and 1 μM)
[6]
  Phenosense assay T125K F121Y: + (+indicates value greater than 10 μM)
[7]
  Phenosense assay WT: +++ (+++ indicates value between 0.001 μM and 1 μM)

## Cc1csc2nc(C(=O)NCc3ccc(Cl)c(Cl)c3)c(O)c(=O)n12
[2]
  Phenosense assay G140S Q148H: + (+indicates value greater than 10 μM)
[3]
  Phenosense assay E92Q N155H: + (+indicates value greater than 10 μM)
[4]
  Phenosense assay Y143R: +++ (+++ indicates value between 0.001 μM and 1 μM)
[5]
  Phenosense assay T661 S153Y: + (+indicates value greater than 10 μM)
[1]
  Enzyme WT: +++ (+++ indicates value between 0.001 μM and 1 μM)
[6]
  Phenosense assay T125K F121Y: + (+indicates value greater than 10 μM)
[7]
  Phenosense assay WT: +++ (+++ indicates value between 0.001 μM and 1 μM)

## CN1CCN(Cc2cn3c(=O)c(O)c(C(=O)NCc4ccc(Cl)c(Cl)c4)nc3s2)CC1
[2]
  Phenosense assay G140S Q148H: + (+indicates value greater than 10 μM)
[3]
  Phenosense assay E92Q N155H: + (+indicates value greater than 10 μM)
[4]
  Phenosense assay Y143R: +++ (+++ indicates value between 0.001 μM and 1 μM)
[5]
  Phenosense assay T661 S153Y: ++ (++ indicates value between 1 μM and 10 μM)
[1]
  Enzyme WT: +++ (+++ indicates value between 0.001 μM and 1 μM)
[6]
  Phenosense assay T125K F121Y: + (+indicates value greater than 10 μM)
[7]
  Phenosense assay WT: +++ (+++ indicates value between 0.001 μM and 1 μM)
